We go through 21 compounds from patent US20230271954A1 (Gossamer Bio Services, Inc., priority 2020, published 2023).

Assay [1] has as its target T1, DGKζ (Homo sapiens, UniProt Q13574).
T1 construct: purchased Carna 12-110
The assay is described as follows: DGKζ biochemical assay (ADP-Glo). The following applies: read-out: DGK ζ IC50. As to the method: (§1) Compounds of the present invention were prepared into 10 mM DMSO solution and 10 nL of stock was transferred into 384 plates (Optiplate 384 plate) using Echo550. DMSO was used as high control, and ATP substrate buffer was used as a low control. A 1× enzyme assay buffer was prepared (Hepes, pH 7.0 25 mM, BSA 0.05%, Triton-X100 0.002%, CaCl2) 1 μM, MgCl2 10 mM, DTT 2 mM). […] OAG (1-oleoyl-2-acetyl-sn-glycerol, 25 mg/ml, Avanti 8001000) and PS (10 mg/ml, Avanti 840032P) were mixed at the ratio of 1:2. A 1× substrate solution was prepared with 1× assay buffer by 100-fold dilution. The substrate solution was sonicated on ice for 1 min. The pure ATP was added to the substrate solution (DGKα:400 μM). 5 μL of the enzyme solution were added to the 384 well plate, and the plate was spun for 1 min at 1000 rpm and incubated for 30 mins at RT. 5 μL of 1× substrate solution were added to the 384 well plate, the plate was spun and then incubated for 45 mins at RT. 10 μL ADP-Glo […] was added to stop the assay. After 60 mins at RT, 20 μL ADP-Glo Detection buffer was added as the final step. Plate was read after 45 min incubation at RT.
(§2) Data analysis was performed by calculating the […] using following the formula:
(§3) [formula] • High control (Hc): DMSO/DGKα(DGKζ)/Substrate/ATP/ADP-Glo • Low Control (Lc): ATP/ADP-Glo

For assay [2], the target named is DGKα (Homo sapiens, UniProt P23743). The assay is described as follows: DGKα biochemical assay (ADP-Glo). The settings on record: read-out: DGK α IC50. As to the method:
as §1, §2, §3

Sequence of DGKα (P23743 whole entry): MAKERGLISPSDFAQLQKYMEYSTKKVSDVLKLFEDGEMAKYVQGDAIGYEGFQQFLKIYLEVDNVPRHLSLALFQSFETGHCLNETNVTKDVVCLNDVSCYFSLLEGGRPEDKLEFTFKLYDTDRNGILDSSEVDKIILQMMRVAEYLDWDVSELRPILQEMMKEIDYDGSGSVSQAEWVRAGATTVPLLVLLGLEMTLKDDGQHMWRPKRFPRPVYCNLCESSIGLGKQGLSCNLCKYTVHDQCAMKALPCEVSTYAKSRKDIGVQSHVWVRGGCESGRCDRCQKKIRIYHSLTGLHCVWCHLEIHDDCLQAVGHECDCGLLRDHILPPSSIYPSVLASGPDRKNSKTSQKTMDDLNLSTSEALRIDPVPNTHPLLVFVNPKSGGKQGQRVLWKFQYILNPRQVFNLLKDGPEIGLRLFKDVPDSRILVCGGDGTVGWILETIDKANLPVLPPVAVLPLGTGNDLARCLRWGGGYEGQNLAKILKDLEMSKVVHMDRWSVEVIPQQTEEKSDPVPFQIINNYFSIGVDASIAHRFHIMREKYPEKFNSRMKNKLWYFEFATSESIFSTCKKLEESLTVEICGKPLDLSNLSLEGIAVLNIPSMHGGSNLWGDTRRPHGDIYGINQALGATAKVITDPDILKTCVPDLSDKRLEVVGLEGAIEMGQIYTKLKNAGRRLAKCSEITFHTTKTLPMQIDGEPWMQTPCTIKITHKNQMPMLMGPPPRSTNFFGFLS
T1 sequence (Q13574 1-929 isoform Q13574-4): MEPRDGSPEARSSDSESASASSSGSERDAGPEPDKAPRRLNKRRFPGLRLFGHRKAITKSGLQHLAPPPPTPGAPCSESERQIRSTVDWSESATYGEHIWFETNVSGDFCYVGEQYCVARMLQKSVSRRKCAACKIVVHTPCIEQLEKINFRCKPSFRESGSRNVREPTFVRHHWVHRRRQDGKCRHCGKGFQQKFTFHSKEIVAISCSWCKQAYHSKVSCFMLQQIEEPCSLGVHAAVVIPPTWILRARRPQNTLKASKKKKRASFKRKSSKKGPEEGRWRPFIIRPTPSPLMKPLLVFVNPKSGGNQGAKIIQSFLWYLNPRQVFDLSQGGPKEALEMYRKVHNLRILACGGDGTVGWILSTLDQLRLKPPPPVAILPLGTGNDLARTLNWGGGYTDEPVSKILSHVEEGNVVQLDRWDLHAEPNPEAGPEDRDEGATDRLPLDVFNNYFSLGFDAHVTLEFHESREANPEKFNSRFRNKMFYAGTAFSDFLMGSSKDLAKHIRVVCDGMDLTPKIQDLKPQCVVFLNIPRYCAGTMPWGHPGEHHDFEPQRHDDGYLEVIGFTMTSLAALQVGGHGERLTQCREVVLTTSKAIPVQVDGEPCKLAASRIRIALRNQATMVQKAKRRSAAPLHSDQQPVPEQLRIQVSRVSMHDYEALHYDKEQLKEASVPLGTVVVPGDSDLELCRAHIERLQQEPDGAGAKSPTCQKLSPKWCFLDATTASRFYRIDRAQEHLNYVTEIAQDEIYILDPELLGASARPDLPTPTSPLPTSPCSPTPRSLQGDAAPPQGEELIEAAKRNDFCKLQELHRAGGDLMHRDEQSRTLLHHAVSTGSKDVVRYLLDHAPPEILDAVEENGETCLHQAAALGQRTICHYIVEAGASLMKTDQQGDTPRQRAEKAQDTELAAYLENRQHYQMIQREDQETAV

Turning to `Cn1c(=O)c(C#N)c(N(C)[C@H]2CC[C@@H](N(CC3CC3)c3ccc4c(c3)C(=O)NC4)CC2)c2nc(C#N)ccc21` [Example 202, cis-8-((-4-((cyclopropylmethyl)(3-oxoisoindolin-5-yl)amino)cyclohexyl)(methyl)amino)-5-methyl-6-oxo-5,6-dihydro-1,5-naphthyridine-2,7-dicarbonitrile], the IC50 in assay [1] and in assay [2] was at least 1000 nM each time.
Consider `Cn1c(=O)cc(N(C)[C@H]2CC[C@@H](N(CC3COCCO3)c3ccc(F)cc3)CC2)c2nc(C#N)ccc21` (stereo partly drawn) [Example 163, cis-8-((-4-(((1,4-dioxan-2-yl)methyl)(4-fluorophenyl)amino)cyclohexyl)(methyl)amino)-5-methyl-6-oxo-5,6-dihydro-1,5-naphthyridine-2-carbonitrile], for which the IC50 in assay [1] was 100 to 1000 nM; in assay [2] it was under 10 nM.
The matching figures for `COc1cc(N(CC2CC2)[C@H]2CC[C@H](N(C)c3c(C#N)c(=O)n(C)c4ccc(C#N)nc34)CC2)ccc1F` [Example 34, trans-8-((4-((cyclopropylmethyl)(4-fluoro-3-methoxyphenyl)amino)cyclohexyl)(methyl)amino)-5-methyl-6-oxo-5,6-dihydro-1,5-naphthyridine-2,7-dicarbonitrile]: at least 1000 nM and 100 to 1000 nM.
In the same order, the values of `Cn1c(=O)c(C#N)c(N(C)[C@H]2CC[C@@H](N(CC3CC3)c3ccc(Cl)cc3)CC2)c2ncccc21` [Example 8, cis-4-((4-((4-chlorophenyl)(cyclopropylmethyl)amino)cyclohexyl)(methyl)amino)-1-methyl-2-oxo-1,2-dihydro-1,5-naphthyridine-3-carbonitrile] are at least 1000 nM and 10 to 100 nM.
In the same order, the values of `COc1cc(F)ccc1N(C1CC1)[C@H]1CC[C@@H](N(C)c2c(C#N)c(=O)n(C)c3ccc(Cl)nc23)CC1` [Example 3H, cis-6-chloro-4-((4-(cyclopropyl(4-fluoro-2-methoxyphenyl)amino)cyclohexyl)(methyl)amino)-1-methyl-2-oxo-1,2-dihydro-1,5-naphthyridine-3-carbonitrile] are 10 to 100 nM and 100 to 1000 nM.
As to `Cn1c(=O)c(C#N)c(N(C)[C@H]2CC[C@@H](N(CC3CC3)c3cccc(F)c3)CC2)c2nc(Cl)ccc21` [Example 22, cis-6-chloro-4-((4-((cyclopropylmethyl)(3-fluorophenyl)amino)cyclohexyl)(methyl)amino)-1-methyl-2-oxo-1,2-dihydro-1,5-naphthyridine-3-carbonitrile], the half-inhibitory concentration (IC50) in assay [1] and in assay [2] was at least 1000 nM in each case.
Turning to `Cn1c(=O)c(C#N)c(N(C)[C@H]2CC[C@@H](N(CC3COCCO3)c3ccc4c(c3)OCCO4)CC2)c2nc(C#N)ccc21` (stereo partly drawn) [Example 182, cis-8-((4-(((1,4-dioxan-2-yl)methyl)(2,3-dihydrobenzo[b][1,4]dioxin-6-yl)amino)cyclohexyl) (methyl)amino)-5-methyl-6-oxo-5,6-dihydro-1,5-naphthyridine-2,7-dicarbonitrile], the IC50 in assay [1] is under 10 nM; in assay [2], at least 1000 nM.
With `Cn1c(=O)cc(N(C)[C@H]2CC[C@H](N(CC3CCC3)c3ccc(F)cc3)CC2)c2nc(C#N)ccc21` [Example 44, trans-8-((-4-((cyclobutylmethyl)(4-fluorophenyl)amino)cyclohexyl)(methyl)amino)-5-methyl-6-oxo-5,6-dihydro-1,5-naphthyridine-2-carbonitrile], the results for the concentration for half-maximal inhibition (IC50) in assay [1] and in assay [2] were at least 1000 nM and 100 to 1000 nM, respectively.
In the same order, the values of `O=C(N[C@H]1CC[C@@H](N(CC2CC2)c2ccccc2)CC1)c1c[nH]c2cccnc12` [Example 4F, cis-N-(4-((Cyclopropylmethyl)(phenyl)amino)cyclohexyl)-1H-pyrrolo[3,2-b]pyridine-3-carboxamide] are at least 1000 nM and at least 1000 nM.
Regarding `Cn1c(=O)c(C#N)c(N(C)[C@H]2CC[C@H](N(c3ccccc3)C3CC3)CC2)c2nc(Cl)ccc21` [Example 3C, trans-6-Chloro-4-((4-(cyclopropyl(phenyl)amino)cyclohexyl)(methyl)amino)-1-methyl-2-oxo-1,2-dihydro-1,5-naphthyridine-3-carbonitrile], the IC50 was at least 1000 nM in assay [1] and 10 to 100 nM in assay [2].
For `Cn1c(=O)c(C#N)c(N(C)[C@H]2CC[C@H](N(CC3CC3)c3cc4c(cn3)OCO4)CC2)c2nc(C#N)ccc21` [Example 212, trans-8-((-4-([1,3]dioxolo[4,5-c]pyridin-6-yl(cyclopropylmethyl)amino)cyclohexyl)(methyl)amino)-5-methyl-6-oxo-5,6-dihydro-1,5-naphthyridine-2,7-dicarbonitrile], the concentration for half-maximal inhibition (IC50) in assay [1] and in assay [2] was at least 1000 nM throughout.
For the compound `Cn1c(=O)c(C#N)c(N(C)[C@H]2CC[C@@H](N(CC3CC3)c3cccc(F)c3)CC2)c2nc(C#N)ccc21` [Example 26, cis-8-((4-((cyclopropylmethyl)(3-fluorophenyl)amino)cyclohexyl)(methyl)amino)-5-methyl-6-oxo-5,6-dihydro-1,5-naphthyridine-2,7-dicarbonitrile], the figures for the 50% inhibitory concentration (IC50) in assay [1] and in assay [2] were 100 to 1000 nM and 10 to 100 nM, respectively.
The matching figures for `CN(c1c(C#N)c(=O)n(C)c2ccc(C#N)nc12)C1CCC(N(CC2CCC2)c2ccc(CN3CCOCC3)cc2)CC1` (single isomer, unassigned) [Example 190, (cis or trans)-8-((4-((cyclobutylmethyl)(4-(morpholinomethyl)phenyl)amino)cyclohexyl) (methyl)amino)-5-methyl-6-oxo-5,6-dihydro-1,5-naphthyridine-2,7-dicarbonitrile]: at least 1000 nM and 10 to 100 nM.
On to `Cn1c(=O)c(C#N)c(N(C)[C@H]2CC[C@H](N(CC3CCC3)c3cccc4c3OCO4)CC2)c2nc(Cl)ccc21` [Example 132, trans-4-((-4-(benzo[d][1,3]dioxol-4-yl(cyclobutylmethyl)amino)cyclohexyl)(methyl)amino)-6-chloro-1-methyl-2-oxo-1,2-dihydro-1,5-naphthyridine-3-carbonitrile], for which the IC50 in assay [1] is 10 to 100 nM; in assay [2], under 10 nM.
The matching figures for `Cn1c(=O)c(C#N)c(N(C)[C@H]2CC[C@@H](N(c3ccc(F)cc3F)C3CC3)CC2)c2nc(Cl)ccc21` [Example 5, cis-6-chloro-4-((-4-(cyclopropyl(2,4-difluorophenyl)amino)cyclohexyl)(methyl)amino)-1-methyl-2-oxo-1,2-dihydro-1,5-naphthyridine-3-carbonitrile]: at least 1000 nM and 100 to 1000 nM.
Turning to `Cn1c(=O)c(C#N)c(N(C)[C@H]2CC[C@H](N(CC3CC3)c3ccc(F)c(OC(F)F)c3)CC2)c2nc(Cl)ccc21` [Example 96], the IC50 in assay [1] was at least 1000 nM; in assay [2] it was under 10 nM.
The matching figures for `Cc1cc(F)ncc1N(CC1CCC1)[C@H]1CC[C@H](N(C)c2c(C#N)c(=O)n(C)c3ccc(C#N)nc23)CC1` [Example 140, trans-8-((-4-((cyclobutylmethyl)(6-fluoro-4-methylpyridin-3-yl)amino)cyclohexyl)(methyl)amino)-5-methyl-6-oxo-5,6-dihydro-1,5-naphthyridine-2,7-dicarbonitrile]: 10 to 100 nM and 100 to 1000 nM.
In the same order, the values of `Cn1c(=O)c(C#N)c(N(C)[C@H]2CC[C@H](N(CC3CC3)c3ccc(F)cn3)CC2)c2nc(Cl)ccc21` [Example 3L, trans-6-chloro-4-((4-((cyclopropylmethyl)(5-fluoropyridin-2-yl)amino)cyclohexyl)(methyl)amino)-1-methyl-2-oxo-1,2-dihydro-1,5-naphthyridine-3-carbonitrile] are 100 to 1000 nM and 10 to 100 nM.
The matching figures for `COc1cc(N(CC2CC2)[C@H]2CC[C@H](N(C)c3c(C#N)c(=O)n(C)c4ccc(C#N)nc34)CC2)cc(OC)c1F` [Example 115, trans-8-((-4-((cyclopropylmethyl)(4-fluoro-3,5-dimethoxyphenyl)amino)cyclohexyl)(methyl)amino)-5-methyl-6-oxo-5,6-dihydro-1,5-naphthyridine-2,7-dicarbonitrile]: 100 to 1000 nM and 100 to 1000 nM.
On to `CC(C)CN(c1ccc(F)cc1)[C@H]1CC[C@@H](N(C)c2c(C#N)c(=O)n(C)c3ccc(Cl)nc23)CC1` [Example 48, cis-6-chloro-4-((-4-((4-fluorophenyl)(isobutyl)amino)cyclohexyl)(methyl)amino)-1-methyl-2-oxo-1,2-dihydro-1,5-naphthyridine-3-carbonitrile], for which the IC50 in assay [1] is at least 1000 nM; in assay [2], 100 to 1000 nM.
For the compound `Cn1c(=O)c(C#N)c(N(C)[C@H]2CC[C@@H](N(CC3CCOCC3)c3ccc(F)cc3)CC2)c2nc(C#N)ccc21` [Example 53, cis-8-((-4-((4-fluorophenyl)((tetrahydro-2H-pyran-4-yl)methyl)amino)cyclohexyl)(methyl)amino)-5-methyl-6-oxo-5,6-dihydro-1,5-naphthyridine-2,7-dicarbonitrile], the IC50 in assay [1] lay within 100 to 1000 nM; in assay [2], 10 to 100 nM.
